From patent publication US8093028B2, “Engineered glycosyltransferases with expanded substrate specificity” (Wisconsin Alumni Research Foundation, priority 2007, dated 2012)

How the values were obtained:
Format in all cases: biochemical
OleD P67T/S132F/A242V [1] = biological target: T1, OleD P67T/S132F/A242V (Streptomyces antibioticus, UniProt Q53685, A242V/P67T/S132F); conditions: for Conversion rates (%), P67T/S132F/A242V: Table 3, 4-Me-umb (4) as acceptor, end point assay
T1 construct: made in house; host or cells: E. coli (site-directed mutant of pET28/OleD)
Description: (§1) Reactions were carried out as described above with the following exceptions. The total volume was 50 μl and the acceptor FIG. 1: 4 was at 50 μM and the NDP-sugar at ˜500 μM. The NDP-sugars were used directly from RmlA-catalyzed reactions. […] Reactions were incubated at 25° C. for 3 h.
(§2) The total volume was 50 μl and the acceptor FIG. 1: 4 or FIG. 1: 1 was at 50 μM and the NDP-sugar at ˜500 μM. The NDP-sugars were used directly from RmlA-catalyzed reactions. […] Reactions were incubated at 25° C. for 3 h.
(§3) For activity toward FIG. 1: 4, aliquots (25 μl) were quenched with 25 μl of an 8:1 mixture of ice-cold MeOH/HCl, and centrifuged at 14,000 rpm for 10 min. […] HPLC peak areas were integrated, and the product concentration calculated as a percent of the total peak area. All products were characterized by LC-MS. Mass spectra were obtained using electrospray ionization on an Agilent 1100 HPLC-MSD SL quadrapole mass spectrometer connected to a UV/Vis diode array detector.

OleD A242V [2] = biological target: T2, OleD A242V (Streptomyces antibioticus, UniProt Q53685, A242V/P55A/R82V/R83E/T84P); assay: Rate of glucoside formation with acceptors (RP-HPLC); conditions: 200 μM acceptor, 1 mM UDPG
T2 construct: made in house; host or cells: E. coli BL21(DE3)pLysS (error-prone PCR clone in pET28a)
Description: (§4) Enzyme assays for the determination of glycosyl transfer rate to FIG. 1: 4, Table 1: 27-32 were carried out in a total volume of 500 μl 50 mM Tris-HCl (pH8.0) containing 5 mM MgCl2, 200 μM acceptor, 1 mM UDPG, and 50 μg pure enzyme. Aliquots (100 μl) were removed between 0 and 30 min, at which time product formation was still linear with respect to time, and quenched with 90 μl of an 8:1 mixture of ice-cold MeOH/HCl, and centrifuged at 14,000 rpm for 10 min. Supernatants were analyzed by analytical reverse-phase HPLC with a 250 mm×4.6 mm Gemini […] C18 column (Phenomenex, Torrance, Calif.) using a gradient of 10-90% CH3CN in 0.1% trifluoroacetic acid (TFA)/H2O in 20 min at 1 ml/min, with detection at 254 nm. HPLC peak areas were integrated, and the product concentration calculated as a percent of the total peak area. Product identity was confirmed by co-elution with a commercial standard when available and, in all cases, by LC-MS (FIG. 8).
(§5) Reaction conditions for assay of macrolide glycosylation were identical to that for FIG. 1: 1, except that typically, less enzyme was used (1-10 μg) and reactions were quenched with an equal volume of ice-cold MeOH. Centrifuged reaction mixtures were analyzed by analytical reverse-phase HPLC with a Gemini 5μ C18 column (Phenomenex) using a gradient of 0-90% CH3CN in 50 mM NH3COOH over 30 min at 1 ml/min. Products and acceptor macrolide were detected by evaporative light scattering detection (ELSD) using a drift tube temperature of 105° C. and a nitrogen flow of 2.5 ml/min. All products were characterized by APCI LC-MS on an Agilent 1100 Series LC/MSD quadrapole mass spectrometer connected to a UV detector. Quenched reaction mixtures were analyzed by reverse-phase HPLC with a 10 mm×4.6 mm Zorbax Extend 5μ C18 Analytical Guard Column (Agilent Technologies) using an isocratic gradient of 80% MeOH in 2 min at 1 ml/min, with detection at 254 nm.
(§6) Enzyme reactions were carried out in a total volume of 500 μl 50 mM Tris-HCl (pH8.0) containing 5 mM MgCl2, 200 μM acceptor, 1 mM UDPG, and 50 μg pure enzyme. Aliquots (100 μl) were removed between 0 and 30 min, and quenched with 90 μl of an 8:1 mixture of ice-cold MeOH/HCl for activity towards FIG. 1: 4, Table 1: 27-32, or with 90 μl of ice-cold MeOH for activity towards FIG. 1: 1, and the samples centrifuged at 14,000 rpm for 10 min.
(§7) For determination of activity to FIG. 1: 4, Table 1: 27-32, supernatants were analyzed by analytical reverse-phase HPLC with a Gemini 5μ C18 column (Phenomenex) using a gradient of 10-90% CH3CN in 0.1% trifluoroacetic acid (TFA)/H2O in 20 min, with detection at 254 nm. HPLC peak areas were integrated, and the product concentration calculated as a percent of the total peak area. All products were characterized by LC-MS. Mass spectra were obtained using electrospray ionization on an Agilent 1100 HPLC-MSD SL quadrapole mass spectrometer connected to a UV/Vis diode array detector. For LC-MS analysis, quenched reaction mixtures (see below) were analyzed by analytical reverse-phase HPLC with a 250 mm×4.6 mm Gemini 5μ C18 column (Phenomenex, Torrance, Calif.) using a gradient of 10-90% CH3CN in 0.1% formic acid/H2O in 20 min at 1 ml/min, with detection at 254 nm.
as §5, with “For determination” for “Reaction conditions for assay”, “activity toward” for “macrolide glycosylation were identical to that for”, “centrifuged” for “except that typically, less enzyme was used (1-10 μg) and reactions were quenched with an equal volume of ice-cold MeOH. Centrifuged”, “Compounds FIG. 1: 1” for “Products”, “3” for “acceptor macrolide”

WT OleD = biological target: T3, WT OleD (Streptomyces antibioticus, UniProt Q53685, P55A/R82V/R83E/T84P); assay: as above; conditions: 200 μM acceptor, 1 mM UDPG
T3 construct: made in house; host or cells: E. coli BL21(DE3)pLysS, plasmid pET28/OleD
Description: as §4, §5, §6, §7
as §5, with “For determination” for “Reaction conditions for assay”, “activity toward” for “macrolide glycosylation were identical to that for”, “centrifuged” for “except that typically, less enzyme was used (1-10 μg) and reactions were quenched with an equal volume of ice-cold MeOH. Centrifuged”, “Compounds FIG. 1: 1” for “Products”, “3” for “acceptor macrolide”

OleD P67T [3] = biological target: T4, OleD P67T (Streptomyces antibioticus, UniProt Q53685, P55A/P67T/R82V/R83E/T84P); assay: as above; conditions: 200 μM acceptor, 1 mM UDPG
T4 construct: made in house; host or cells: E. coli (site-directed mutant of pET28/OleD)
Description: as §4, §5, §6, §7
as §5, with “For determination” for “Reaction conditions for assay”, “activity toward” for “macrolide glycosylation were identical to that for”, “centrifuged” for “except that typically, less enzyme was used (1-10 μg) and reactions were quenched with an equal volume of ice-cold MeOH. Centrifuged”, “Compounds FIG. 1: 1” for “Products”, “3” for “acceptor macrolide”

OleD S132F [4] = biological target: T5, OleD S132F (Streptomyces antibioticus, UniProt Q53685, P55A/R82V/R83E/S132F/T84P); assay: as above; conditions: for Rate of glucoside formation, S132F: 200 μM acceptor, 1 mM UDPG
T5 construct: made in house; host or cells: E. coli (site-directed mutant of pET28/OleD)
Description: as §4, §5, §6, §7
as §5, with “For determination” for “Reaction conditions for assay”, “activity toward” for “macrolide glycosylation were identical to that for”, “centrifuged” for “except that typically, less enzyme was used (1-10 μg) and reactions were quenched with an equal volume of ice-cold MeOH. Centrifuged”, “Compounds FIG. 1: 1” for “Products”, “3” for “acceptor macrolide”

OleD P67T/S132F/A242V [5] = biological target: T1, OleD P67T/S132F/A242V; assay: as above; conditions: for Rate of glucoside formation, P67T/S132F/A242V: 200 μM acceptor, 1 mM UDPG; for Fold-improvement compared to WT OleD: rate of P67T/S132F/A242V versus WT
Description: as §4, with “8). […]” for “8).”
as §6, §7
as §5, with “For determination” for “Reaction conditions for assay”, “activity toward” for “macrolide glycosylation were identical to that for”, “centrifuged” for “except that typically, less enzyme was used (1-10 μg) and reactions were quenched with an equal volume of ice-cold MeOH. Centrifuged”, “Compounds FIG. 1: 1” for “Products”, “3” for “acceptor macrolide”

OleD A242V [6] = biological target: T2, OleD A242V; conditions: Table 3; 4-Me-umb (4) as acceptor, end point assay
Description: as §1, §2, §3

OleD P67T [7] = biological target: T4, OleD P67T; conditions: Table 3; 4-Me-umb (4) as acceptor, end point assay
Description: as §1, §2, §3

OleD S132F [8] = biological target: T5, OleD S132F; conditions: Table 3; 4-Me-umb (4) as acceptor, end point assay
Description: as §1, §2, §3

Row | Molecule | Conversion rates (%), P67T/S132F/A242V (OleD P67T/S132F/A242V [1]) | Rate of glucoside formation, A242V (OleD A242V [2]) | Rate of glucoside formation, WT (WT OleD) | Rate of glucoside formation, P67T (OleD P67T [3]) | Rate of glucoside formation, S132F (OleD S132F [4]) | Rate of glucoside formation, P67T/S132F/A242V (OleD P67T/S132F/A242V [5]) | Fold-improvement compared to WT OleD (OleD P67T/S132F/A242V [5]; UDPG donor) | Conversion rates (%), A242V (OleD A242V [6]) | Conversion Rate (%), P67T/S132F/A242V (OleD P67T/S132F/A242V [1]; Table 2, acceptor 4 at 50 μM, NDP-sugar ~500 μM, 25° C., 3 h) | Conversion rates (%), P67T (OleD P67T [7]) | Conversion rates (%), S132F (OleD S132F [8]) | Rate of glucoside formation, WT (WT OleD; listed as Table 1: 28) | activity, fold more than WT OleD (OleD S132F [4]; UDPG donor) | glucosylation rate, fold less than the WT enzyme (OleD P67T/S132F/A242V [5]; UDPG donor) | Fold-improvement compared to WT OleD (OleD P67T/S132F/A242V [5]; UDPG donor, listed as Table 1: 27)
1 | UDP-2-amino-glc [UDP-2-amino-glc (19)] | 24% |  |  |  |  |  |  |  |  |  |  |  |  |  | 
2 | O=c1c(-c2ccc(O)cc2)coc2cc(O)cc(O)c12 [genistein (32), genistein] |  | 14.1 mmols/product formed/min/μg enzyme × 10^3 | 3.4 mmols/product formed/min/μg enzyme × 10^3 | 28.8 mmols/product formed/min/μg enzyme × 10^3 | 8.8 mmols/product formed/min/μg enzyme × 10^3 | 26 mmols/product formed/min/μg enzyme × 10^3 | 7.7 fold |  |  |  |  |  |  |  | 
3 | O=c1c(O)c(-c2ccc(O)cc2)oc2cc(O)cc(O)c12 [kaempferol (30), kaempferol] |  | 15.3 mmols/product formed/min/μg enzyme × 10^3 | 13.2 mmols/product formed/min/μg enzyme × 10^3 | 99.9 mmols/product formed/min/μg enzyme × 10^3 | 23 mmols/product formed/min/μg enzyme × 10^3 | 28 mmols/product formed/min/μg enzyme × 10^3 | 2.1 fold |  |  |  |  |  |  |  | 
4 | O=c1c(-c2ccc(O)cc2)coc2cc(O)ccc12 [daidzein (31), daidzein] |  | 8.5 mmols/product formed/min/μg enzyme × 10^3 | 4.2 mmols/product formed/min/μg enzyme × 10^3 | 16.0 mmols/product formed/min/μg enzyme × 10^3 | 5.5 mmols/product formed/min/μg enzyme × 10^3 | 24 mmols/product formed/min/μg enzyme × 10^3 | 5.7 fold |  |  |  |  |  |  |  | 
5 | O=c1ccn([C@@H]2O[C@H](COP(=O)(O)OP(=O)(O)O[C@H]3OC[C@@H](O)[C@H](O)[C@H]3O)[C@@H](O)[C@H]2O)c(=O)[nH]1 [UDP-xylose (7), UDP-xylose] | 31% |  |  |  |  |  |  | 2% | 31% | 2% | 1.5% |  |  |  | 
6 | O=C(O)c1cc2ccc(O)cc2oc1=O [7-hydroxycoumarin-3-carboxylic acid (28), 7-hydroxycoumarin-3-carboxylic acid] |  | 0.01 mmols/product formed/min/μg enzyme × 10^3 | 0.01 mmols/product formed/min/μg enzyme × 10^3 | 0.022 mmols/product formed/min/μg enzyme × 10^3 | 0.022 mmols/product formed/min/μg enzyme × 10^3 | 0.62 mmols/product formed/min/μg enzyme × 10^3 | 62 fold |  |  |  |  | essentially non-detectable substrates |  |  | 
7 | CO[C@H]1C[C@H](O[C@H]2[C@H](C)[C@@H](O[C@@H]3O[C@H](C)C[C@H](N(C)C)[C@H]3O)[C@@H](C)C[C@@]3(CO3)C(=O)[C@H](C)[C@@H](O)[C@@H](C)[C@@H](C)OC(=O)[C@@H]2C)O[C@@H](C)[C@@H]1O [oleandomycin (1), oleandomycin] |  | 70 mmols/product formed/min/μg enzyme × 10^3 | 700 mmols/product formed/min/μg enzyme × 10^3 | 20 mmols/product formed/min/μg enzyme × 10^3 | 1487 mmols/product formed/min/μg enzyme × 10^3 | 13 mmols/product formed/min/μg enzyme × 10^3 | 0.02 fold |  |  |  |  |  | ~2 fold | ~54 fold | 
8 | O=C(O)Cc1cc(=O)oc2cc(O)ccc12 [7-hydroxycoumarin-4-acetic acid (27), 7-hydroxycoumarin-4-acetic acid] |  | 0.16 mmols/product formed/min/μg enzyme × 10^3 | essentially non-detectable substrates | 0.22 mmols/product formed/min/μg enzyme × 10^3 | 0.08 mmols/product formed/min/μg enzyme × 10^3 | 3.6 mmols/product formed/min/μg enzyme × 10^3 | >180 fold |  |  |  |  |  |  |  | > 180 fold
